Key:
amylosucrase (ams) = biological target: T1, amylosucrase (ams) (Faecalibacterium duncaniae, UniProt C7H8X5); assay: MALDI-TOF-MS of products, lysate of overexpressing E. coli; format: biochemical; settings: 10 mg/ml sucrose, 50 mM sodium phosphate, 37°C, 10 min; 36 ng soluble lysate protein
T1 construct: gene FAEPRAA2165_02769; full-length ORF amplified from genomic DNA, pET28a (BamHI/XhoI sites in primers, tag kept if any), E. coli BL21(DE3), soluble lysate; EC 2.4.1.4, GH13; primers encode N-term MAAKQE, C-term LVKNK
T1 sequence (C7H8X5 1-609): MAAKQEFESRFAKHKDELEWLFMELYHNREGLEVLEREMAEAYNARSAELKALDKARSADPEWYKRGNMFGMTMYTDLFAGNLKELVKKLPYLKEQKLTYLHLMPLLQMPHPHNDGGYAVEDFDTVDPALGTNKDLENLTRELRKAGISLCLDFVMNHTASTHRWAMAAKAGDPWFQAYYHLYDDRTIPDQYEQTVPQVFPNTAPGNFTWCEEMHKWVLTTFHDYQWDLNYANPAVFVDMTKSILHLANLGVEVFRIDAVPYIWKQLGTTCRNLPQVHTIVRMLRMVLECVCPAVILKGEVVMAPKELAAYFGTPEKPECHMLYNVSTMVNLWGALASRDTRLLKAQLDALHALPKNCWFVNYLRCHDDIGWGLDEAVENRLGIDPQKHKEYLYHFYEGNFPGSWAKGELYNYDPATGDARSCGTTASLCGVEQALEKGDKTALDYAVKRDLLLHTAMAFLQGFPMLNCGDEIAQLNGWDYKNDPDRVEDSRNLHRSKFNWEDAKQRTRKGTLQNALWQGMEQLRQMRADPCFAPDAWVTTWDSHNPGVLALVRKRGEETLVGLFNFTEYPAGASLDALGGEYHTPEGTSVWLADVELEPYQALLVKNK

β-fructosidase (bfrA) = biological target: T2, β-fructosidase (bfrA) (Faecalibacterium duncaniae, UniProt C7H8W7); assay: as above; format: biochemical; settings: 10 mg/ml sucrose, 50 mM sodium phosphate, 37°C, 10 min; 36 ng soluble lysate protein
T2 construct: gene FAEPRAA2165_02761; full-length ORF amplified from genomic DNA, pET28a (BamHI/XhoI sites in primers, tag kept if any), E. coli BL21(DE3), soluble lysate; EC 3.2.1.26, GH32; primers encode N-term MNDLTL, C-term FELNL
T2 sequence (C7H8W7 1-491): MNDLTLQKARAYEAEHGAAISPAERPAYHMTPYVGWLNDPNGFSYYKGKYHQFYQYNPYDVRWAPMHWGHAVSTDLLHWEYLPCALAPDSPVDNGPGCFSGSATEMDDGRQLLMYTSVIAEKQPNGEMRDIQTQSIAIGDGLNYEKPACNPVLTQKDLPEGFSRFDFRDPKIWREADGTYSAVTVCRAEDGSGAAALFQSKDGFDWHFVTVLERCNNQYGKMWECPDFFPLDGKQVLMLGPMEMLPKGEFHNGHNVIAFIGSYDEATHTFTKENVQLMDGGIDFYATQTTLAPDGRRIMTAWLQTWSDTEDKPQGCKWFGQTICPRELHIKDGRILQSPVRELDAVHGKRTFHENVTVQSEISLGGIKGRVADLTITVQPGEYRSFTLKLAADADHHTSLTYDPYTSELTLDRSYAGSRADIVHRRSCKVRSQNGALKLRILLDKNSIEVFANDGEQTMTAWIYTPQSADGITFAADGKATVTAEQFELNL

OC[C@H]1O[C@@](CO)(O[C@H]2O[C@H](CO)[C@@H](O)[C@H](O)[C@H]2O)[C@@H](O)[C@@H]1O [sucrose]
MALDI-TOF-MS of products, lysate of overexpressing E. coli (amylosucrase (ams)): sucrose was degraded by the pET28a-ams and pET28a-bfrA recombinant strains
MALDI-TOF-MS of products, lysate of overexpressing E. coli (β-fructosidase (bfrA)): sucrose was degraded by the pET28a-ams and pET28a-bfrA recombinant strains
